From US8497293B2, “Haloalkylsubstituted aryloxyalkylimidazolines for use as pesticides” (Syngenta Crop Protection LLC, priority 2007, dated 2013)
Structures can show the parent of a compound that is named as a salt. Where two headings read alike, the source gives them in different places.

Columns and labels:
[1] = test system: Tetranychus urticae (Two-Spotted Spider Mite); assay: Tetranychus urticae bean leaf disc spray test; type: in vivo; details: foliar, 192 h, read-out: control (egg mortality, larval mortality, adult mortality)
From the text: Bean leaf discs on agar in 24-well microtiter plates wer sprayed with test solutions at an application rate of 200 ppm. After drying, the leaf discs are infested with mite populations of mixed ages. 8 days later, discs are checked for egg mortality, larval mortality, and adult mortality. The following compounds gave 100% control: 1.001, 1.003, 1.004, 1.005, 1.007, 1.016, 1.021, 1.022, 1.023, and 1.024. The following compounds gave 80% control: 1.019, 1.025 and 1.027.

[2] = test system: Myzus persicae (Green Peach Aphid); assay: Myzus persicae sunflower leaf disc spray test; type: in vivo; details: foliar, 144 h, read-out: control (mortality)
Protocol: Sunflower leaf discs were placed on agar in a 24-well microtiter plate and sprayed with test solutions at an application rate of 200 ppm. After drying, the leaf discs were infested with an aphid population of mixed ages. After an incubation period of 6 DAT, samples were checked for mortality. The following compounds gave 100% control: 1.001, 1.003, 1.004, 1.005, 1.006, 1.007, 1.008, 1.016, 1.017, 1.019, 1.021, 1.023 and 1.024. The following compounds gave 80% control: 1.002 and 1.026. The following compounds gave 50% control: 1.010, 1.018, 1.025 and 1.027.

[3] = test system: Myzus persicae (Green Peach Aphid); assay: Myzus persicae pea seedling root (systemic) test; type: in vivo; details: 144 h, read-out: control (mortality)
From the text: Roots of pea seedlings, infested with an aphid population of mixed ages, were placed directly in the test solutions of 24 ppm. 6 days after introduction, samples were checked for mortality. The following compounds gave 100% control: 1.001, 1.003, 1.016, 1.021, 1.022 and 1.024. The following compounds gave 80% control: 1.005, 1.019, 1.020 and 1.023.

[4] = test system: Heliothis virescens (Tobacco Budworm); assay: Heliothis virescens egg/larval test on artificial diet; type: in vivo; details: read-out: control (egg mortality, larval mortality, growth regulation)
Protocol: Eggs (0-24 h old) were placed in 24-well microtiter plate on artificial diet and treated with test solutions at an application rate of 200 ppm by pipetting. After an incubation period of 4 days, samples were checked for egg mortality, larval mortality, and growth regulation. The following compounds gave 100% control: 1.016, 1.020 and 1.024. The following compounds gave 80% control: 1.001, 1.003 and 1.022. The following compounds gave 50% control: 1.004, 1.007, and 1.014.

[5] = 200 ppm by pipetting, eggs 0-24 h old on artificial diet, 4 days incubation

Row | melting point | Structure (SMILES) | mortality at 200 ppm [1] | mortality at 200 ppm [2] | mortality at 24 ppm [3] | mortality at 200 ppm [4, 5] | mortality at 200 ppm [4]
1 | 112 to 120 °C | CCCC(Oc1cccc(C(F)(F)F)c1S(C)(=O)=O)C1=NCCN1 (stereo not shown) | – | – | – | – | –
2 | 90 to 109 °C | CCCC(Oc1cccc(C(F)(F)F)c1SC)C1=NCCN1 (stereo not shown) (as salt: maleate) | – | – | – | – | –
3 | – | Cc1c(OC(C2=NCCN2)C(C)C)cccc1C(F)F (stereo not shown) [Compound 1.021] | 100% | 100% | 100% | – | –
4 | – | CCCC(Oc1cccc(C(F)F)c1C)C1=NCCN1 (stereo not shown) [Compound 1.016] | 100% | 100% | 100% | 100% | –
5 | – | CCC(Oc1cccc(C(F)F)c1C1CC1)C1=NCCN1 (stereo not shown) [Compound 1.017] | – | 100% | – | – | –
6 | – | CCC(Oc1cccc(CF)c1C)C1=NCCN1 (stereo not shown) [Compound 1.022] | 100% | – | 100% | – | 80%
7 | – | CCCC(Oc1cccc(CF)c1C)C1=NCCN1 (stereo not shown) [Compound 1.024] | 100% | 100% | 100% | 100% | –
8 | 127 to 133 °C | CCC(Oc1cccc(C(F)(F)F)c1C(F)(F)F)C1=NCCN1 (stereo not shown) | – | – | – | – | –
9 | – | CCCCC(Oc1cccc(CF)c1C)C1=NCCN1 (stereo not shown) [Compound 1.020] | – | – | 80% | 100% | –
10 | 150 to 157 °C | CCC(Oc1cccc(C(F)(F)F)c1CO)C1=NCCN1 (stereo not shown) (as salt: chloride) | – | – | – | – | –
11 | – | CCC(Oc1cccc(C(F)(F)F)c1C)C1=NCCN1 (stereo not shown) [Compound 1.001, 2-[1-(2-methyl-3-trifluoromethyl-phenoxy)-propyl]-4,5-dihydro-1H-imidazole] | 100% | 100% | 100% | – | 80%
12 | 185 to 187 °C | CCc1c(OC(CC)C2=NCCN2)cccc1C(F)(F)F (stereo not shown) (as salt: oxalate) | – | – | – | – | –
13 | – | CCC(Oc1cccc(C(F)(F)F)c1C(F)F)C1=NCCN1 (stereo not shown) [Compound 1.002] | – | 80% | – | – | –
14 | – | CCCCC(Oc1cccc(C(F)(F)F)c1C)C1=NCCN1 (stereo not shown) [Compound 1.004] | 100% | 100% | – | 50% | –
15 | – | Cc1c(OC(C2=NCCN2)C(C)C)cccc1C(F)(F)F (stereo not shown) [Compound 1.005] | 100% | 100% | 80% | – | –
16 | – | CCC(Oc1cccc(C(F)F)c1C)C1=NCCN1 (stereo not shown) [Compound 1.023] | 100% | 100% | 80% | – | –
17 | – | CCCC(Oc1cccc(C(F)(F)F)c1C)C1=NCCN1 (stereo not shown) [Compound 1.003] | 100% | 100% | 100% | 80% | –
18 | – | CCCCC(Oc1cccc(C(F)F)c1C)C1=NCCN1 (stereo not shown) [Compound 1.019] | 80% | 100% | 80% | – | –
